In one assay the target is T1, Human HDAC7 (Homo sapiens, UniProt Q8WUI4).
T1 construct: (a.a. 518-end) with N-terminal GST tag; GST (N); host or cells: baculovirus expression system
T1 sequence (Q8WUI4 518-952 limits assumed): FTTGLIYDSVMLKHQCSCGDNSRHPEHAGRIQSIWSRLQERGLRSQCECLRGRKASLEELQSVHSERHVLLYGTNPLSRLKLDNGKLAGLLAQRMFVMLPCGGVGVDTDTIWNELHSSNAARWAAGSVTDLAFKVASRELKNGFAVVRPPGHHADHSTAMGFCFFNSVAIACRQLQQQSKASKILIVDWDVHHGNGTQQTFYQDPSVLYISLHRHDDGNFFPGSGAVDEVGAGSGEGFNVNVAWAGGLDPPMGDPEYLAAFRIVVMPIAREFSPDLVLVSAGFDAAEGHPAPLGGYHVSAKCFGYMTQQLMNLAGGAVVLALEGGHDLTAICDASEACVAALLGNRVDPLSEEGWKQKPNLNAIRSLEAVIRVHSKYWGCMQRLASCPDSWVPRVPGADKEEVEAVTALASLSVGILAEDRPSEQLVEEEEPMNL
Kind of assay: HDAC7 biochemical assay, class IIa-specific substrate. Particulars: read-out: HDAC Isoform IC50 (nM) 7. An outline of the steps: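 Two-step fluorogenic readout: class IIa-selective trifluoroacetyl-lysine AMC substrate (50 μM) deacetylated by N-terminal GST-HDAC7 fragment (0.001 ng/ul), then digested by developer, Ex/Em 360/460. Reaction: 30 min, room temperature, Tris-HCl pH 8.0, NaCl/KCl/MgCl2, 1 mg/mL BSA, 1% DMSO.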

A further assay deals with T2, Recombinant human HDAC6 (Homo sapiens, UniProt Q9UBN7).
T2 construct: full length, MW=159 kDa; GST (N); host or cells: Sf9 insect cells (baculovirus)
T2 sequence (Q9UBN7 1-1215): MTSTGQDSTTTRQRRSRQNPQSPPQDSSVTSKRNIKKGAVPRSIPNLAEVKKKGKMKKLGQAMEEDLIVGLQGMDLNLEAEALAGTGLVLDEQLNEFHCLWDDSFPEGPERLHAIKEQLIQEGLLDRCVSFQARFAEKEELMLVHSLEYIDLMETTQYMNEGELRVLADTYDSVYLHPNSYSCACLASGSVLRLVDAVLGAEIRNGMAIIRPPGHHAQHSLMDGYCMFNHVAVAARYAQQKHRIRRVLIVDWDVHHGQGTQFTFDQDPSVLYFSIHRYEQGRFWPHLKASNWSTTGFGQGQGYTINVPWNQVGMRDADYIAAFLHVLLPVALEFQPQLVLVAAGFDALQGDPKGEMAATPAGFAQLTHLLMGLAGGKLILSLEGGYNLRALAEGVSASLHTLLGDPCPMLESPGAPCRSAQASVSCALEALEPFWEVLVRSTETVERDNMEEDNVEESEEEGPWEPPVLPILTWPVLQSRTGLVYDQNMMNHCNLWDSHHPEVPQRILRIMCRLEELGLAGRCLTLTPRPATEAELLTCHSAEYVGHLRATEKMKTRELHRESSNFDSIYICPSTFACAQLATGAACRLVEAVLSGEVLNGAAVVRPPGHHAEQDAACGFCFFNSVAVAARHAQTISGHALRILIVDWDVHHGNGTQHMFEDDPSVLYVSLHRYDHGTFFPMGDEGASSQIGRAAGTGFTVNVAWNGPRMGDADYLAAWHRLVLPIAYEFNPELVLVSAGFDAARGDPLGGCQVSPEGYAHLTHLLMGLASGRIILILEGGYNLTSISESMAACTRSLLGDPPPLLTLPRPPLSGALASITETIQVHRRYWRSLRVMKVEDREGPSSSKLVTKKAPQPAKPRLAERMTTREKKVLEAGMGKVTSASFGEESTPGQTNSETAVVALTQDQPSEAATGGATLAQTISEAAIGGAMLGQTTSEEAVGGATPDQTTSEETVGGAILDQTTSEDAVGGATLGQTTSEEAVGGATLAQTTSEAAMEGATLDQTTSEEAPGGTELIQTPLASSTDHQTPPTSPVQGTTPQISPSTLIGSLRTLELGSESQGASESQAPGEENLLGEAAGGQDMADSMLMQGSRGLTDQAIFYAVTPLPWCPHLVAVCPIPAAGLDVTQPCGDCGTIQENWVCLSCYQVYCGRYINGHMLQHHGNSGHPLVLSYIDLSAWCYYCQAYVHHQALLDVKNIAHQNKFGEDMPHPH
The assay is described as follows: HDAC6 biochemical assay, AMC-labeled peptide substrate. To be noted: HDAC6; read-out: HDAC Isoform IC50 (nM) 6. An outline of the steps: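 Two-step fluorogenic read-out: enzyme deacetylates 50 μM RHKK(Ac)AMC for 1 h at 30° C in pH 8.0 Tris buffer with BSA and 1% DMSO, then developer cleavage gives signal at Ex 360/Em 460. Enzyme: 0.3 ng/ul recombinant full-length human HDAC6, GST-tagged, Sf9-expressed.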

A further assay has as its target T3, Human HDAC1 (Homo sapiens, UniProt Q13547).
T3 construct: full length with C-terminal His-tag and C-terminal FLAG-tag; His (C); FLAG (C); host or cells: baculovirus expression system
Kind of assay: HDAC1 biochemical assay, AMC-labeled peptide substrate. To be noted: read-out: HDAC Isoform IC50 (nM) 1. An outline of the steps: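 Two-step fluorogenic read: HDAC1 deacetylates 50 μM acetyl-lysine AMC peptide RHKK(Ac)AMC for 1 h at 30° C (pH 8.0, 1% DMSO, with compound), then developer digests the product for fluorescence at Ex/Em 360/460. Enzyme is full-length human, His/FLAG-tagged, insect-cell expressed, at 0.3 ng/ul.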

In another assay the target is T4, Human HDAC9 (Homo sapiens, UniProt Q9UKV0).
T4 construct: amino acids 604-1066 with C-terminal His tag; His (C); host or cells: baculovirus expression system
Kind of assay: HDAC9 biochemical assay, class IIa-specific substrate. Particulars: read-out: HDAC Isoform IC50 (nM) 9. In short, it runs like this:
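HDAC9 residues 604-1066 (C-terminal His tag, baculovirus-expressed) at 0.06 ng/ul with 50 μM class IIa substrate Boc-Lys(trifluoroacetyl)-AMC in Tris-HCl pH 8.0 buffer with BSA and 1% DMSO. 30 min at room temperature, then developer added; fluorescence read at 360/460 nm Ex/Em.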

The next assay deals with T5, Human HDAC4 (Homo sapiens, UniProt P56524).
T5 construct: amino acids 627-1085 with N-terminal GST tag; GST (N); host or cells: baculovirus expression system
The assay is described as follows: HDAC4 biochemical assay, class IIa-specific substrate. Particulars: read-out: HDAC Isoform IC50 (nM) 4. In short, it runs like this: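 Two-step fluorogenic read-out: deacetylated BOC-Lys(trifluoroacetyl)-AMC (50 μM) was digested by developer and measured at Ex/Em 360/460. Deacetylation by 0.004 ng/ul HDAC4 (aa 627-1085, N-terminal GST) ran 30 min at room temperature, pH 8.0 Tris buffer, 1 mg/mL BSA, 1% DMSO.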

In the next assay the target is T6, Human HDAC5 (Homo sapiens, UniProt Q9UQL6).
T6 construct: full length with C-terminal His tag, MW=51.1 kDa; His (C); host or cells: baculovirus expression system
Kind of assay: HDAC5 biochemical assay, class IIa-specific substrate. Particulars: read-out: HDAC Isoform IC50 (nM) 5. An outline of the steps:
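Two-step fluorogenic read-out: deacetylated trifluoroacetyl-lysine AMC substrate (50 μM) digested by developer, measured at Ex/Em 360/460. Deacetylation step: 0.05 ng/ul His-tagged full-length baculoviral enzyme with compound, 30 min, room temperature, pH 8.0 Tris with 1 mg/mL BSA and 1% DMSO.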

Molecules are shown by their SMILES.

T6 sequence (Q9UQL6 656-1122 limits assumed): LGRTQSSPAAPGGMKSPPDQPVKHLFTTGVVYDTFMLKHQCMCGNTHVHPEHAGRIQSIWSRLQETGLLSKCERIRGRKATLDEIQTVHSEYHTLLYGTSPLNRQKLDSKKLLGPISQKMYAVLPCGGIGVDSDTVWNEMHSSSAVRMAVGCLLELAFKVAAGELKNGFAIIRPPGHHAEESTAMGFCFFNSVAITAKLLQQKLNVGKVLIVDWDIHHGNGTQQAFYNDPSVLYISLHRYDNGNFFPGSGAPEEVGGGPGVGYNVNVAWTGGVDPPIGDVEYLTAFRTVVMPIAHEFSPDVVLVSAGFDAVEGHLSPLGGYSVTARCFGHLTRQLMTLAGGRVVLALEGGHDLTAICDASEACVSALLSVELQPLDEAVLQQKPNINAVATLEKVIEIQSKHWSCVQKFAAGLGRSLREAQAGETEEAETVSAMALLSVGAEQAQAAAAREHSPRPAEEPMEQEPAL
T4 sequence (Q9UKV0 604-1066 isoform Q9UKV0-5): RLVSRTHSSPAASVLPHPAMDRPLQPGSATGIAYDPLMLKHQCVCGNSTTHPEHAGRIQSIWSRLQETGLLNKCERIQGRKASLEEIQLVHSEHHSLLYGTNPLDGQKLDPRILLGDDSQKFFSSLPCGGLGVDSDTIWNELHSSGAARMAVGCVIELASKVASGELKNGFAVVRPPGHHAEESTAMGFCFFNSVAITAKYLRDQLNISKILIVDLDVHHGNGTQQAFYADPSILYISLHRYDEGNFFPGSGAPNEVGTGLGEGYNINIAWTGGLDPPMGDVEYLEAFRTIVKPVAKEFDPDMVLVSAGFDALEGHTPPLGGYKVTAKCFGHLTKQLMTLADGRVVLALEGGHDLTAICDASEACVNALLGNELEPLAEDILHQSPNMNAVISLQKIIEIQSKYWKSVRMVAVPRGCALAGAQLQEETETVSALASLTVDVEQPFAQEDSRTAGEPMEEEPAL
T5 sequence (P56524 627-1084 limits assumed): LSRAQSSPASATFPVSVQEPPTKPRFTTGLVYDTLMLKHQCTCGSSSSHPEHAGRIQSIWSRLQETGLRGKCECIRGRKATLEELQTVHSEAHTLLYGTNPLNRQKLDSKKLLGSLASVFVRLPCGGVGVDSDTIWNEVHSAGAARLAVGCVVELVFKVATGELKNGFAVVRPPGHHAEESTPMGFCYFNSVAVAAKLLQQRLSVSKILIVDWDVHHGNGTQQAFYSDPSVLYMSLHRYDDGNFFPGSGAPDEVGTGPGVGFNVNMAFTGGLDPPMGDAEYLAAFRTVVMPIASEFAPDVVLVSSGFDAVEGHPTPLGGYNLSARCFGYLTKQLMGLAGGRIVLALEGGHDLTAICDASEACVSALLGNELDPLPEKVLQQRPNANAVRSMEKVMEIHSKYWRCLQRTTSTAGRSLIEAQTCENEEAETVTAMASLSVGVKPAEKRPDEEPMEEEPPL
T3 sequence (Q13547 whole entry): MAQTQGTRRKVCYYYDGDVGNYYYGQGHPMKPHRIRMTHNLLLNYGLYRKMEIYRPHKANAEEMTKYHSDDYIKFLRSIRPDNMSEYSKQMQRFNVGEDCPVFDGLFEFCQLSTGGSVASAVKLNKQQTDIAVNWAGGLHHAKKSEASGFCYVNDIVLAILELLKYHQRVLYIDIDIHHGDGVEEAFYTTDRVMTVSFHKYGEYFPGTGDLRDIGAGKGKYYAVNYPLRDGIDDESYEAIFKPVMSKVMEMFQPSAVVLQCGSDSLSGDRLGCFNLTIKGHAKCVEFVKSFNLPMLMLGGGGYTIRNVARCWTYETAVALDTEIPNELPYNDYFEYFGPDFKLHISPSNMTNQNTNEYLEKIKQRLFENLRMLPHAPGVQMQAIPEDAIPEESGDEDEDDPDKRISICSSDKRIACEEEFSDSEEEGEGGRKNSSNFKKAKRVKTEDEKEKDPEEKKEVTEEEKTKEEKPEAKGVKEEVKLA

Turning to `FC(F)(F)c1nc(-c2ccc(CN(c3cnccn3)c3cccnn3)s2)no1` [Example DD, N-(Pyrazin-2-yl)-N-({5-[5-(trifluoromethyl)-1,2,4-oxadiazol-3-yl]thiophen-2-yl}methyl)pyridazin-3-amine], the IC50 at Human HDAC7 was at most 10000 nM; on Recombinant human HDAC6, at most 10000 nM; on Human HDAC1 it was over 10000 nM; on Human HDAC9 it was at most 10000 nM; at Human HDAC4, at most 1000 nM; at Human HDAC5, at most 10000 nM.
As for `FC(F)(F)c1nc(-c2ccc(CN(c3cnccn3)c3nccnn3)s2)no1` [Example DE, N-(Pyrazin-2-yl)-N-({5-[5-(trifluoromethyl)-1,2,4-oxadiazol-3-yl]thiophen-2-yl}methyl)-1,2,4-triazin-3-amine], the IC50 at Human HDAC7 was at most 1000 nM; at Recombinant human HDAC6, at most 1000 nM; at Human HDAC1 it was over 10000 nM; at Human HDAC9, at most 10000 nM; at Human HDAC4, at most 1000 nM; at Human HDAC5, at most 1000 nM.
Take `Cc1ccc(N(Cc2ccc(-c3noc(C(F)(F)F)n3)s2)c2cnccn2)nn1` [Example DF, 6-Methyl-N-(pyrazin-2-yl)-N-({5-[5-(trifluoromethyl)-1,2,4-oxadiazol-3-yl]thiophen-2-yl}methyl)pyridazin-3-amine]: the IC50 at Human HDAC7 is at most 10000 nM; at Recombinant human HDAC6, at most 10000 nM; at Human HDAC1 it was over 10000 nM; at Human HDAC9 it was at most 10000 nM; at Human HDAC4, at most 10000 nM; at Human HDAC5, at most 10000 nM.
As for `COc1ccc(N(Cc2ccc(-c3noc(C(F)(F)F)n3)s2)c2cnccn2)nn1` [Example DG, 6-Methoxy-N-(pyrazin-2-yl)-N-({5-[5-(trifluoromethyl)-1,2,4-oxadiazol-3-yl]thiophen-2-yl}methyl)pyridazin-3-amine], the IC50 at Human HDAC7 was at most 10000 nM; at Recombinant human HDAC6, at most 1000 nM; at Human HDAC1, over 10000 nM; at Human HDAC9, at most 10000 nM; at Human HDAC4 it was at most 1000 nM; at Human HDAC5, at most 1000 nM.
With `FC(F)(F)c1nc(-c2ccc(CN(c3cnccn3)c3ccc(N4CCOCC4)nn3)s2)no1` [Example DJ, 6-(Morpholin-4-yl)-N-(pyrazin-2-yl)-N-({5-[5-(trifluoromethyl)-1,2,4-oxadiazol-3-yl]thiophen-2-yl}methyl)pyridazin-3-amine], the IC50 at Human HDAC7 is at most 10000 nM; on Recombinant human HDAC6, at most 500 nM; on Human HDAC1, over 10000 nM; at Human HDAC9, at most 10000 nM; at Human HDAC4, at most 10000 nM; on Human HDAC5, at most 1000 nM.
As for `CN1CCN(c2ccc(N(Cc3ccc(-c4noc(C(F)(F)F)n4)s3)c3cnccn3)nn2)CC1` [Example DK, 6-(4-Methylpiperazin-1-yl)-N-(pyrazin-2-yl)-N-({5-[5-(trifluoromethyl)-1,2,4-oxadiazol-3-yl]thiophen-2-yl}methyl)pyridazin-3-amine], the IC50 on Human HDAC7 is at most 500 nM; at Recombinant human HDAC6, at most 500 nM; at Human HDAC1, at most 10000 nM; on Human HDAC9 it was at most 10000 nM; on Human HDAC4, at most 500 nM; at Human HDAC5, at most 500 nM.
With `FC(F)(F)c1nc(-c2ccc(CN(c3cnccn3)c3ccc(-n4cccn4)nn3)s2)no1` [Example DM, N-(Pyrazin-2-yl)-6-(1H-pyrazol-1-yl)-N-({5-[5-(trifluoromethyl)-1,2,4-oxadiazol-3-yl]thiophen-2-yl}methyl)pyridazin-3-amine], the IC50 on Human HDAC7 is at most 1000 nM; at Recombinant human HDAC6, at most 1000 nM; at Human HDAC1, at most 10000 nM; on Human HDAC9, at most 1000 nM; on Human HDAC4, at most 500 nM; on Human HDAC5, at most 1000 nM.
Consider `FC(F)(F)c1nc(-c2ccc(CN(c3cnccn3)c3ccc(-c4ccccc4)nn3)s2)no1` [Example DN, 6-Phenyl-N-(pyrazin-2-yl)-N-({5-[5-(trifluoromethyl)-1,2,4-oxadiazol-3-yl]thiophen-2-yl}methyl)pyridazin-3-amine], for which the 50% inhibitory concentration (IC50) on Human HDAC7 was at most 500 nM; at Recombinant human HDAC6, at most 500 nM; at Human HDAC1, at most 10000 nM; at Human HDAC9 it was at most 10000 nM; on Human HDAC4 it was at most 1000 nM; at Human HDAC5, at most 500 nM.
As to `Cn1cc(-c2ccc(N(Cc3ccc(-c4noc(C(F)(F)F)n4)s3)c3cnccn3)nn2)cn1` [Example DO, 6-(1-Methyl-1H-pyrazol-4-yl)-N-(pyrazin-2-yl)-N-({5-[5-(trifluoromethyl)-1,2,4-oxadiazol-3-yl]thiophen-2-yl}methyl)pyridazin-3-amine], the IC50 is at most 1000 nM at Human HDAC7; at most 500 nM at Recombinant human HDAC6; at most 10000 nM on Human HDAC1; at most 10000 nM on Human HDAC9; at most 1000 nM at Human HDAC4; at most 1000 nM on Human HDAC5.
Regarding `O=C(O)c1ccc(N(Cc2ccc(-c3noc(C(F)(F)F)n3)s2)c2cnccn2)nn1` [Example DP, 6-[(Pyrazin-2-yl)({5-[5-(trifluoromethyl)-1,2,4-oxadiazol-3-yl]thiophen-2-yl}methyl)amino]pyridazine-3-carboxylic acid], the IC50 on Human HDAC7 was at most 10000 nM; on Recombinant human HDAC6, at most 1000 nM; on Human HDAC1, over 10000 nM; on Human HDAC9 it was at most 10000 nM; on Human HDAC4, at most 10000 nM; on Human HDAC5 it was at most 10000 nM.

Values taken from US20210038607A1, “OXADIAZOLYLTHIOPHENE DERIVATIVES USEFUL AS HISTONE DEACETYLASE INHIBITORS” (Karus Therapeutics Limited, priority 2018, published 2021).
